The values that follow come from US20180008620A1, “METHODS OF TREATING NEUROLOGICAL INFLAMMATORY DISORDERS” (Mayo Foundation for Medical Education and Research, priority 2015, published 2018).

Assay [1] relates to Neurons cultured from neonatal mice. As to the kind of experiment: Calcium imaging of spontaneous network activity (GCaMP reporter). In kind it is cell-based, mouse. As to conditions: for correlation of spontaneous activity (Pearson correlation matrix): cytokine-stimulated cultures vs vehicle control (overall uncorrelated); for correlation of spontaneous activity (Pearson correlation matrix) / absolute number of spontaneously active cells: FIG. 7; for absolute number of spontaneously active cells: cytokine-stimulated networks, vehicle control 42 neurons. As to the method:
The PBS control cultures show low amplitude calcium transients that are non-synchronous. […] Calcium levels were monitored using a fluorescent reporter transduced into the neurons with […].
The Pearson correlation matrix was calculated for all of the neurons showing spontaneous activity in the culture and heat-mapped (red=highly correlated activity; blue=uncorrelated activity). In the vehicle control neurons, there is a small cluster of synchronous activity but the overall network is uncorrelated.
Neurons are cultured in glass imaging chambers under conditions that promote formation of mature synaptic networks. Cells are infected with an AAV1.Syn.GCaMP6f calcium reporter that provides fast optical tracking of intracellular calcium levels (Akerboom et al., 2012, J. Neurosci., 32:[…]; Chen et al., 2013, Nature, 499:295-300). Calcium levels are monitored in real-time using a Zeiss 5-Live confocal microscope equipped with environmental chamber. Following collection of baseline spontaneous activity levels at low magnification, inflammatory cytokine is added at the optimal cytokine concentration determined above, and cells are followed for up to 60 minutes. Images are post-processed in Image J to measure calcium transient amplitudes and frequencies within defined cells. In some experiments, an Olympus multi-photon microscope is used at high magnification to track activity in individual synapses. In addition to spontaneous activity, calcium flux elicited by addition of glutamate to cultures that have been pretreated with inflammatory cytokines for different times (0, 1, 3, 6, 12, 24, 48, 72, or 96 hr) prior to stimulation also is measured.
Neurons were cultured from neonatal mice and stimulated with TNF alpha (100 ng/mL) or IFN gamma (500 U/mL) for 24 hr. Following transduction with an AAV-encoded GCaMPf reporter, fast calcium transients were imaged in the cells. Regions of interest outlining individual neurons were defined in each frame of movies collected over several minutes, and the fluorescence intensity of each cell was graphed through time to reveal patterns in the population response.

Assay [2] relates to Mouse cortical neurons. As to the kind of experiment: IFN gamma-induced transcriptional changes, Illumina BeadArray. As to conditions: IFN gamma 500 U/mL, 24 hr, vs untreated controls; mean±95% confidence intervals. In kind it is cell-based. As to the method:
Cortical neurons were prepared from embryonic day 15 C57BL/6 mouse fetuses, following published protocols (Sauer et al., 2013, Neurobiol. Dis., 59:194-205). In preliminary experiments, after one week in vitro, the neurons were stimulated for 24 hr with IFN gamma (500 U/mL). Quadruplicate RNA samples were collected under treated and untreated conditions, and changes in gene expression were assessed using the Illumina BeadArray system. Only genes that were detected at P<0.05 on the array were considered for further analysis. Expression levels were […] and the relative level of expression following IFN gamma stimulation was compared to untreated controls. Table 1 provides mean±95% confidence intervals; the appropriate statistical test was chosen based on normality and equal variance tests.

For assay [3], the system named is Mouse cortical neurons. The assay can be described thus: IFN gamma stimulation of distal axons in two-chamber device, microarray of cell body RNA. In kind it is cell-based. As to conditions: IFN gamma added to axon chamber, RNA from cell body chamber 72 hours later. On the procedure:
Mouse cortical neurons were cultured in a two-chamber device that separates cell bodies from axons. Panel A is a schematic of the chambered device constructed in PDMS polymer. Panel B is a low-magnification image of the corresponding regions shown in Panel A stained with an antibody against neurofilament (an axon-specific protein). Higher magnification images are shown of the cell body chamber (Panel C), the axon grooves (Panel D), and the axon chamber (Panel E). DAPI staining indicates the complete absence of any cells in the axon chamber. Panel F is a schematic showing the experimental design: IFNgamma was added to the pure axons in the axon chamber; RNA was collected from the cell body chamber 72 hours later and analyzed by microarray to identify changes in gene expression.
Mouse cortical neurons were cultured in a two-chamber device that separates cell bodies from axons.
IFN gamma was added to the pure axons in the axon chamber, and RNA was collected from the cell body chamber 72 hours later. The RNA was analyzed by microarray to identify changes in gene expression.

[4] abbreviates: TNF alpha 100 ng/mL or IFN gamma 500 U/mL for 24 hr, FIGS. 8B and 8C.

As for picrotoxin [reference compound], the “averaged calcium responses / network activity” value in assay [1] (control cultures treated with 2.4 μM picrotoxin, FIG. 8D) is “induces network synchrony and bursting”.

In the case of TNF alpha, in assay [1] (setting [4]), the “averaged calcium responses / network activity” value was “network bursting and highly synchronized synaptic activity”. Moreover, in assay [1], the “correlation of spontaneous activity (Pearson correlation matrix)” value is listed as “nearly complete correlation across the entire network” and the “absolute number of spontaneously active cells” value came out at 151 neurons. In assay [1] (stimulated for 24 hr, vs PBS control with low amplitude non-synchronous transients, FIG. 6), the “spontaneous calcium levels in neurons” value is given as “large amplitude calcium signals that were highly synchronized”.

Consider “IFN gamma: inflammatory cytokine interferon gamma used to stimulate neurons”, for which the “averaged calcium responses / network activity” value in assay [1] (setting [4]) is “network bursting and highly synchronized synaptic activity”. In addition, in assay [1], the “correlation of spontaneous activity (Pearson correlation matrix)” value was “nearly complete correlation across the entire network” and the “absolute number of spontaneously active cells” value is on record as 137 neurons. In addition, in assay [2], the “Fold Change, gene Actb (housekeeping)” value is listed as 1.04 ± 0.06 fold; the “Fold Change, gene Aldh1a1” value is 2.46 ± 0.08 fold; the “Fold Change, gene Collybistin” value is on record as 0.71 ± 0.06 fold; the “Fold Change, gene GABA A R α3” value stood at 0.66 ± 0.10 fold. Also, in assay [2], the “Fold Change, gene GABA A R β1” value was found to be 0.56 ± 0.09 fold; the “Fold Change, gene GABA A R β2” value is recorded as 0.80 ± 0.09 fold; the “Fold Change, gene GABA A R β3” value came out at 0.75 ± 0.07 fold; the “Fold Change, gene GABA A R γ2” value is listed as 0.64 ± 0.05 fold. Moreover, in assay [2], the “Fold Change, gene GABA B R2” value came to 0.71 ± 0.10 fold; the “Fold Change, gene Gapdh” value amounted to 1.03 ± 0.06 fold; the “Fold Change, gene Gch1” value stood at 1.59 ± 0.04 fold; the “Fold Change, gene Gephyrin” value is on record as 0.75 ± 0.05 fold. Moreover, in assay [2], the “Fold Change, gene Glycine R β1” value is recorded as 0.59 ± 0.07 fold; the “Fold Change, gene MOCOS” value came out at 2.97 ± 0.21 fold; the “Fold Change, gene Xdh” value is reported as 1.47 ± 0.14 fold. For the same compound, in assay [3], the “GTP cyclohydrolase I expression in neuron cell bodies” value is “significantly up-regulated”, the “MOCOS expression in neuron cell bodies” value is “robust up-regulation”, the “aldehyde dehydrogenase expression in neuron cell bodies” value is “significantly up-regulated” and the “gephyrin expression in neuron cell bodies” value is given as “down-regulation”. In assay [3], the “glycine receptor beta subunit expression in neuron cell bodies” value is “down-regulation” and the “xanthine dehydrogenase expression in neuron cell bodies” value is “significantly up-regulated”. Moreover, in assay [3] (not shown), the “GABA receptor elements expression in neuron cell bodies” value is reported as “down-regulation” and the “gephyrin-binding scaffolds expression in neuron cell bodies” value is “down-regulation”.

As to `NCCCC(=O)O` [GABA, reference compound], the “averaged calcium responses / synaptic activity” value in assay [1] (27 μM GABA added to control cultures, FIG. 8E) was “completely suppresses synaptic activity”.
